Experimental data from patent US7605168B2 (Plexxikon, Inc., priority 2004, dated 2009).

How the values were obtained:
[1] = biological target: T1, PDE4B: catalytic domain of human PDE4B from S152-S528 (Homo sapiens, UniProt Q07343); experiment: PDE4 IC50 determination by Scintillation Proximity Assay (SPA), PDE4B catalytic domain; format: biochemical; conditions: [3H]cAMP SPA, 30 min at 30° C.
T1 construct: The catalytic domain of human PDE4B from S152-S528; His6 (N, cleaved yes); thrombin cleavage site (N, cleaved yes); made in house; host or cells: E. coli BL21 (DE3) RIL
T1 sequence (Q07343 324-700): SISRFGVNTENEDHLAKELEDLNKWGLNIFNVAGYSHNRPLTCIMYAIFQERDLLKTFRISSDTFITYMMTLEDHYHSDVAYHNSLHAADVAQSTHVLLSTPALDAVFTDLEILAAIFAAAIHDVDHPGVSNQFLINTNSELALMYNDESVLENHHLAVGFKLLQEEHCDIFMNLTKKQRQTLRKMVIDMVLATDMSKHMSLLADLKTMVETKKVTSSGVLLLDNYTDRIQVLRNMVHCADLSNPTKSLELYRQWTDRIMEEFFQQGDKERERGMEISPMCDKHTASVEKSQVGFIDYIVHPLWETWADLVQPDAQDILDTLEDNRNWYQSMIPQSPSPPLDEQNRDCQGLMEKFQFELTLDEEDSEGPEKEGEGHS
How it was run: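 Human PDE4B catalytic domain (80 ng/ml) hydrolysed [3H]cAMP in 50 mM Tris pH 7.5, 8.3 mM MgCl, 1.7 mM EGTA, 0.01% BSA for 30 min at 30 °C. Reaction was stopped with yttrium silicate SPA beads in 18 mM ZnSO4, and bound [3H]AMP was counted by scintillation. IC50 came from non-linear regression.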

[2] = biological target: T2, PDE4B2: full-length human PDE4B2 isozyme (Homo sapiens, UniProt Q07343); experiment: PDE4 IC50 determination by Scintillation Proximity Assay (SPA), full-length PDE4B2; format: biochemical; conditions: cell lysate, [3H]cAMP SPA
T2 construct: made in house; host or cells: baculovirus infected insect cells (pFastBacHT)
T2 sequence (Q07343 with tags, fused parts or gaps isoform Q07343-2): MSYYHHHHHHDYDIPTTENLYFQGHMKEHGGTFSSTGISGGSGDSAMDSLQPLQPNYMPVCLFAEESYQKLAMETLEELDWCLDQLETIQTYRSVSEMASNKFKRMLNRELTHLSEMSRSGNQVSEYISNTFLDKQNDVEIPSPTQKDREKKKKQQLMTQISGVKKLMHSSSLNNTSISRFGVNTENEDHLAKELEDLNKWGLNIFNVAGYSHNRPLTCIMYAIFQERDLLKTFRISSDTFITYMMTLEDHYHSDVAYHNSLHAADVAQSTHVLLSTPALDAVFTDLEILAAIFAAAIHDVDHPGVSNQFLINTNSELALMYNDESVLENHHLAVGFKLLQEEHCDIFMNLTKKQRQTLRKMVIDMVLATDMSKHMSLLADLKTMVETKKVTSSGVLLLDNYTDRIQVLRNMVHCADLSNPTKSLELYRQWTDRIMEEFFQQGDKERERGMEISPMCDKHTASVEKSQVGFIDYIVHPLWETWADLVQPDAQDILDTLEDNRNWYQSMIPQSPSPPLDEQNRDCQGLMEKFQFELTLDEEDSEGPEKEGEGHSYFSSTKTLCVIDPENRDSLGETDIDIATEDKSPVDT
How it was run: (§1)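 Unpurified enzyme from cell lysates (PDE4B2 2.5 μl, PDE4D5 0.083 μl of 50% glycerol stock/ml) hydrolysing [3H]cAMP in 50 mM Tris pH 7.5, 8.3 mM MgCl, 1.7 mM EGTA, 0.01% BSA, 30 min at 30 °C. Stopped with yttrium silicate SPA beads in 18 mM ZnSO4; bead-bound [3H]AMP counted. IC50 by non-linear regression.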

[3] = biological target: T3, PDE4D: catalytic domain S316-V692 (Homo sapiens, UniProt Q08499); experiment: PDE4 IC50 determination by Scintillation Proximity Assay (SPA), PDE4D catalytic domain; format: biochemical; conditions: [3H]cAMP SPA, 30 min at 30° C.
T3 construct: pET15S PDE4D S316-V692-X; His6 (N, cleaved yes); thrombin cleavage site (N, cleaved yes); made in house; host or cells: E. coli BL21 (DE3) RIL
T3 sequence (Q08499 380-756): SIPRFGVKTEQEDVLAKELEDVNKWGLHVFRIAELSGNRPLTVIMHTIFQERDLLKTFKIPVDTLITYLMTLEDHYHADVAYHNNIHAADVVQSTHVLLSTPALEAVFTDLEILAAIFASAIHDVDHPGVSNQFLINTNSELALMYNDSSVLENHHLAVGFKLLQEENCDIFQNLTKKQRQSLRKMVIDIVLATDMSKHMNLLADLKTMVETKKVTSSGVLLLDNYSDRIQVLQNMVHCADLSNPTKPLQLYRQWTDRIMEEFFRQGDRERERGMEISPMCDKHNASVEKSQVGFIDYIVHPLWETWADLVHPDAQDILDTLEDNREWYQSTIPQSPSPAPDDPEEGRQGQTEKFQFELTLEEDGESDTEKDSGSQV
Method: IC50s were determined by Scintillation Proximity Assay (SPA). The principle of the assay is based on the fact that cAMP, the PDE4 substrate, binds weakly to Yittrium Silicate SPA beads, whereas AMP, the product of PDE4 hydrolysis binds strongly. Thus, the extent of PDE4 hydrolysis of a sample of [^3H]cAMP can be measured because only the [^3H]AMP produced by PDE4 hydrolysis will bind to the SPA beads and produce a scintillation signal.
[…] Enzyme was stored in 50% glycerol at −20°. See Example 144.
Compounds tested (see Tables 5 for compounds and results) were 3-fold serially diluted 11 times in DMSO from a starting concentration of 4 mM or 40 μM, depending on compound potency. 1 μl of each dilution was transferred into duplicate wells of a white polystyrene 384-well assay plate (Corning #3710). In addition to the compound dilutions, each assay plate contained control wells with 1 μl of DMSO (to define 0% enzyme inhibition) or 1 μl of 200 μM roflumilast (to define 100% enzyme inhibition). Using a Beckman FX robot, 10 μl of [^3H] cAMP (Amersham TRK559) at […] in assay buffer (50 mM Tris, pH 7.5; 8.3 mM MgCl; 1.7 mM EGTA; 0.01% BSA) was transferred to each assay well. Next, 10 μl of PDE4 enzyme in assay buffer was added and the plates were shaken for 30 s. at 1000 rpm to start the cAMP hydrolysis reaction. The concentrations of enzyme used were: PDE4B, 80 ng/ml; PDE4D, 4 ng/ml; PDE4B2, 2.5 μl of 50% glycerol stock/ml; PDE4D5 0.083 μl of 50% glycerol stock/ml. Assay plates were covered and incubated for 30 min. at 30° C. Reactions were stopped by robotic addition of 10 μl of 5 mg/ml SPA beads (Amersham RPNQ0013) in 18 mM ZnSO4. The assay plates were covered with clear plastic film, centrifuged for 1 min. at 1000 RPM to settle the SPA beads, and counted using a Wallac TriLux scintillation counter. IC50's were calculated from the raw assay data by non-linear regression curve fitting using the Assay Explorer software package from MDL.

[4] = biological target: T4, PDE4D5: full-length human PDE4D5 isozyme (Homo sapiens, UniProt Q08499); experiment: PDE4 IC50 determination by Scintillation Proximity Assay (SPA), full-length PDE4D5; format: biochemical; conditions: cell lysate, [3H]cAMP SPA
T4 construct: made in house; host or cells: baculovirus infected insect cells (pFastBacHT)
T4 sequence (Q08499 with tags, fused parts or gaps isoform Q08499-6): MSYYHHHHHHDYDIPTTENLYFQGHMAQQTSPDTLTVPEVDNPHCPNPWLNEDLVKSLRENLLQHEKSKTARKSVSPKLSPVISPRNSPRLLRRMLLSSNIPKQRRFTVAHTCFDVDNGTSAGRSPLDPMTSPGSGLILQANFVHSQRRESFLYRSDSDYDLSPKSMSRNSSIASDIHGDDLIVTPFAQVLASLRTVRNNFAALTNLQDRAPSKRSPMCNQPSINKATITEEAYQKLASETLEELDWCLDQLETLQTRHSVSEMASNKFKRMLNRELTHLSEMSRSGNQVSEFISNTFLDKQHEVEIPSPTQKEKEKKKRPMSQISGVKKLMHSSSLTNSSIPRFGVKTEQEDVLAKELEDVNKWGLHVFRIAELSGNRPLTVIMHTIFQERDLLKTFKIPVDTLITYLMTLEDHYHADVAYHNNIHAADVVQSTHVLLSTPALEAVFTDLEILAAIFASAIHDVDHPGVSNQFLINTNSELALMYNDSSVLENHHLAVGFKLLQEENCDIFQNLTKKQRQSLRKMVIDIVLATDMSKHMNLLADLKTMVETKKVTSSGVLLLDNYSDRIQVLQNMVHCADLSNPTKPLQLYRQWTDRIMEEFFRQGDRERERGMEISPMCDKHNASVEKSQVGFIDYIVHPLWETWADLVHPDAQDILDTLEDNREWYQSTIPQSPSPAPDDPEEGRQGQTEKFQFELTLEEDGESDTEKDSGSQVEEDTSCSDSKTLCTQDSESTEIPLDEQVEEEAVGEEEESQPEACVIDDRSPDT
How it was run: as §1

[5] = system: TNF-α release from whole blood cultures stimulated with LPS; experiment: IC50 by TNF alpha production upon stimulation of whole blood cultures with LPS; format: cell-based; conditions: human whole blood (buffy coat) culture, 100 ng/ml LPS, 4 hours; read-out: h TNFα IC50
How it was run: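 Human buffy coat, diluted with 7 volumes of RPMI/2.5% heat-inactivated FBS, was preincubated with compound (8-point 1:3 series) for 1 h at 37 °C. It was then stimulated with 100 ng/ml LPS (final) for 4 h. Supernatant TNF-α was measured by sandwich ELISA at 450 nm, and IC50 was set between DMSO (0%) and PDE4-inhibitor (100%) controls.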

| Compound | IC50 [1] [µM] | IC50 [2] [µM] | IC50 [3] [µM] | IC50 [4] [µM] | IC50 [5] [µM] |
| --- | --- | --- | --- | --- | --- |
| COc1ccc(-c2c[nH]c3ncccc23)cc1OC [Compound 1, 3-(3,4-dimethoxy-phenyl)-1H-pyrrolo[2,3-b]pyridine] | < 10 | < 10 | ≤ 10 | < 10 | ≤ 10 |
| COc1ccc(-c2cn(S(=O)(=O)c3ccccc3)c3ncccc23)cc1OC [Compound 5, 1-benzenesulfonyl-3-(3,4-dimethoxy-phenyl)-1H-pyrrolo[2,3-b]pyridine] | < 10 | < 10 | ≤ 10 | < 10 | ≤ 10 |
| COc1ccc(-c2cn(S(=O)(=O)Cc3ccc(Cl)cc3)c3ncccc23)cc1OC [Compound 17, 1-(4-chloro-phenylmethanesulfonyl)-3-(3,4-dimethoxy-phenyl)-1H-pyrrolo[2,3-b]pyridine] | < 10 | < 10 | ≤ 10 | < 10 | ≤ 10 |
| COc1ccc(-c2cn(S(=O)(=O)Cc3cccc([N+](=O)[O-])c3)c3ncccc23)cc1OC [Compound 18, 3-(3,4-dimethoxy-phenyl)-1-(3-nitro-phenylmethanesulfonyl)-1H-pyrrolo[2,3-b]pyridine] | < 10 | < 10 | ≤ 10 | < 10 | ≤ 10 |
| COc1ccc(-c2cn(S(=O)(=O)c3cc(C)cc4cccnc34)c3ncccc23)cc1OC [Compound 24] | < 10 | < 10 | ≤ 10 | < 10 | ≤ 10 |
| COc1ccc(-c2cn(C(=O)Nc3ccccc3)c3ncccc23)cc1OC [Compound 28, 3-(3,4-Dimethoxy-phenyl)-pyrrolo[2,3-b]pyridine-1-carboxylic acid phenylamide] | < 10 | < 10 | ≤ 10 | < 10 | – |
| CCOC(=O)c1cccc(NC(=O)n2cc(-c3ccc(OC)c(OC)c3)c3cccnc32)c1 [Compound 30, 3-[3-(3,4-Dimethoxy-phenyl)-pyrrolo[2,3-b]pyridine-1-carbonyl]-amino-benzoic acid ethyl ester] | < 10 | < 10 | ≤ 10 | < 10 | – |
| COc1ccc(-c2cn(C(=O)Nc3ccc(F)c([N+](=O)[O-])c3)c3ncccc23)cc1OC [Compound 31, 3-(3,4-Dimethoxy-phenyl)-pyrrolo[2,3-b]pyridine-1-carboxylic acid (4-fluoro-3-nitro-phenyl)-amide] | < 10 | < 10 | ≤ 10 | < 10 | ≤ 10 |
| COc1cccc(NC(=O)n2cc(-c3ccc(OC)c(OC)c3)c3cccnc32)c1 [Compound 32, 3-(3,4-Dimethoxy-phenyl)-pyrrolo[2,3-b]pyridine-1-carboxylic acid (3-methoxy-phenyl)-amide] | < 10 | < 10 | ≤ 10 | < 10 | > 10 |
| COc1ccc(-c2cn(C(=O)Nc3ccc4c(c3)OCO4)c3ncccc23)cc1OC [Compound 36, 3-(3,4-Dimethoxy-phenyl)-pyrrolo[2,3-b]pyridine-1-carboxylic acidbenzo[1,3]dioxol-5-ylamide] | < 10 | < 10 | ≤ 10 | < 10 | > 10 |
| COc1cccc(NC(=S)n2cc(-c3ccc(OC)c(OC)c3)c3cccnc32)c1 [Compound 42, 3-(3,4-dimethoxy-phenyl)-pyrrolo[2,3-b]pyridine-1-carbothioic acid (3-methoxy-phenyl)-amide] | < 10 | < 10 | ≤ 10 | < 10 | > 10 |
| COc1ccc(-c2ccnc3[nH]ccc23)cc1OC [Compound 50, 4-(3,4-Dimethoxy-phenyl)-1H-pyrrolo[2,3-b]pyridine] | < 10 | < 10 | ≤ 10 | < 10 | ≤ 10 |
| COc1ccc(-c2cn(Cc3cccc([N+](=O)[O-])c3)c3ncccc23)cc1OC [Compound 53, 3-(3,4-Dimethoxy-phenyl)-1-(3-nitro-benzyl)-1H-pyrrolo[2,3-b]pyridine] | < 10 | < 10 | ≤ 10 | < 10 | ≤ 10 |
| COc1ccc(-c2cn(C(=O)c3cccnc3)c3ncccc23)cc1OC [Compound 56, [3-(3,4-Dimethoxy-phenyl)-pyrrolo[2,3-b]pyridin-1-yl]-(3-pyridylyl)-methanone-amide] | < 10 | < 10 | ≤ 10 | < 10 | ≤ 10 |
| COc1ccc(-c2cn(C(=O)c3ccc4c(OC(C)=O)cccc4c3)c3ncccc23)cc1OC [Compound 62, Acetic acid 6-[3-(3,4-dimethoxy-phenyl)-pyrrolo[2,3-b]pyridine-1-carbonyl]-naphthalen-1-yl ester-amide] | < 10 | < 10 | ≤ 10 | < 10 | ≤ 10 |
| COc1ccc(-c2cn(C(=O)c3csc4ccccc34)c3ncccc23)cc1OC [Compound 63, Benzo[b]thiophen-3-yl-[3-(3,4-dimethoxy-phenyl)-pyrrolo[2,3-b]pyridin-1-yl]-methanone] | < 10 | < 10 | ≤ 10 | < 10 | ≤ 10 |
| COc1ccc2c(c1)c(-c1ccc(OC)c(OC3CCCC3)c1)cn2S(=O)(=O)c1cccc2cc(C)cnc12 [Compound 97, 8-[5-Methoxy-3-(3-cyclopentyloxy-4-methoxy-phenyl)-indole-1-sulfonyl]-3-methyl-quinoline] | < 10 | < 10 | ≤ 10 | > 10 | – |
| COc1ccc(-c2cn(S(=O)(=O)c3ccccc3)c3ncccc23)cc1OCc1ccccc1 [Compound 103, 1-Benzenesulfonyl-3-(3-benzyloxy-4-methoxy-phenyl)-1H-pyrrolo[2,3-b]pyridine] | < 10 | < 10 | ≤ 10 | < 10 | – |
| COc1ccc(-c2cn(Cc3cc(-c4ccccc4)no3)c3ncccc23)cc1OC [Compound 104, 3-(3,4-Dimethoxy-phenyl)-1-(3-phenyl-isoxazol-5-ylmethyl)-1H-pyrrolo[2,3-b]pyridine] | < 10 | < 10 | ≤ 10 | < 10 | – |
| COc1ccc(-c2cn(C(=O)c3c(OCC(F)(F)F)ccc4ccccc34)c3ncccc23)cc1OC1CCCC1 [Compound 124, [3-(3-Cyclopentyloxy-4-methoxy-phenyl)-pyrrolo[2,3-b]pyridin-1-yl]-[2-(2,2,2-trifluoro-ethoxy)-naphthalen-1-yl]-methanone] | < 10 | < 10 | ≤ 10 | < 10 | – |
| COc1ccc(-c2c(C)[nH]c3ncccc23)cc1OC [Compound 143, 3-(3,4-Dimethoxy-phenyl)-2-methyl-1H-pyrrolo[2,3-b]pyridine] | < 10 | – | ≤ 10 | – | – |
